In US20110015133A1, “PAX2 AND PAX8 AS TUMOUR TARGETS FOR IMMUNOLOGIC AND MOLECULAR TREATMENT STRATEGIES” (Charite-Universitatsmedizin Berlin, priority 2006, published 2011):

How the values were obtained:
[1] = system: CD3+CD8+ lymphocytes from patients with renal cell and ovarian cancer; experiment: Screening of PAX8 candidate epitopes for recognition by T-cells (IFNγ/TNFα) in carcinoma patients; format: cell-based, human; settings: for recognition by T-cells of patients in peptide pools: 4 pools of three peptides each, every peptide in two pools
Source text: To identify T-cell epitopes, they were screened for recognition by T-cells from patients with renal cell and ovarian cancer which are PAX8 positive tumours secreting cytokine IFNγ or TNFα in response to PAX 8 or control HIV peptide. By using 4 pools of three peptides each, every peptide was present in two pools.

[2] = system: T2-cells loaded with peptide; experiment: Cr release assay, peptide-loaded T2-cells; format: cell-based; settings: T-cells induced against peptide 3496 in a renal cancer patient; 10:1 E:T; label = peptide loaded on T2
Source text: (§1) A panel of colorectal cancer cell lines has been characterized expressing both PAX2 and PAX8 to function as targets for recognition by specific T-cells (Table IV).

[3] = system: colon cancer cell line SW480; experiment: Cr release assay, colon cancer cell line; format: cell-based
Source text: as §1

[4] = system: T-cells of a patient with renal cancer; experiment: Induction of a T-cell response in a cancer patient; parameters: species or system human
[5] = patient # 1 Ovarian, first line (IFNγ)
[6] = patient # 1 Ovarian, second line (TNFα)
[7] = patient # 2 Ovarian, first line (IFNγ)
[8] = patient # 2 Ovarian, second line (TNFα)
[9] = patient # 3 Ovarian, first line (IFNγ)
[10] = patient # 3 Ovarian, second line (TNFα)
[11] = patient # 4 Ovarian, first line (IFNγ)
[12] = patient # 4 Ovarian, second line (TNFα)
[13] = patient # 5 Ovarian, first line (IFNγ)
[14] = patient # 5 Ovarian, second line (TNFα)
[15] = patient # 6 Ovarian, first line (IFNγ)
[16] = patient # 6 Ovarian, second line (TNFα)
[17] = patient # 7 Renal cell, first line (IFNγ)
[18] = patient # 7 Renal cell, second line (TNFα)
[19] = patient # 8 Renal cell, first line (IFNγ)
[20] = patient # 8 Renal cell, second line (TNFα)
[21] = patient # 9 Renal cell, first line (IFNγ)
[22] = patient # 9 Renal cell, second line (TNFα)

Row | Substance | PAX8 candidate epitope recognized (both pools containing it reactive) [1, 5] | PAX8 candidate epitope recognized (both pools containing it reactive) [1, 6] | PAX8 candidate epitope recognized (both pools containing it reactive) [1, 7] | PAX8 candidate epitope recognized (both pools containing it reactive) [1, 8] | PAX8 candidate epitope recognized (both pools containing it reactive) [1, 9] | PAX8 candidate epitope recognized (both pools containing it reactive) [1, 10] | PAX8 candidate epitope recognized (both pools containing it reactive) [1, 11] | PAX8 candidate epitope recognized (both pools containing it reactive) [1, 12] | PAX8 candidate epitope recognized (both pools containing it reactive) [1, 13] | PAX8 candidate epitope recognized (both pools containing it reactive) [1, 14] | PAX8 candidate epitope recognized (both pools containing it reactive) [1, 15] | PAX8 candidate epitope recognized (both pools containing it reactive) [1, 16] | PAX8 candidate epitope recognized (both pools containing it reactive) [1, 17] | PAX8 candidate epitope recognized (both pools containing it reactive) [1, 18] | PAX8 candidate epitope recognized (both pools containing it reactive) [1, 19] | PAX8 candidate epitope recognized (both pools containing it reactive) [1, 20] | PAX8 candidate epitope recognized (both pools containing it reactive) [1, 21] | PAX8 candidate epitope recognized (both pools containing it reactive) [1, 22] | other results
1 | A L L S G R E M V (ALLSGREMV; listed as Homo sapiens) [Peptide 359-367] | no | no | no | no | no | no | no | no | no | no | no | no | no | no | no | no | no | no | 
2 | N L S T H Q T Y P V (NLSTHQTYPV; listed as Homo sapiens) [Peptide 288-298] | no | no | no | no | no | no | no | no | no | no | no | no | no | no | no | no | no | no | 
3 | S L S S S A F L D L (SLSSSAFLDL; listed as Homo sapiens) [Peptide 323-333] | yes | no | no | no | no | no | no | no | no | no | no | no | no | no | no | no | no | no | recognition by T-cells of patients in peptide pools [1]: recognized in both pools
4 | T L D D G K A T L (TLDDGKATL; listed as Homo sapiens) [Peptide 270-278] | no | no | no | no | no | no | no | no | no | no | no | no | no | no | no | no | no | no | 
5 | T L P G Y P P H I (TLPGYPPHI; listed as Homo sapiens) [Peptide 370-378] | no | no | no | no | no | no | no | no | no | no | no | no | no | no | no | no | no | no | 
6 | T L P G Y P P H V [Peptide 3496] |  |  |  |  |  |  |  |  |  |  |  |  |  |  |  |  |  |  | specific cytolysis (killing) of peptide-loaded T2-cells [2]: 32%; cytolysis of SW480 inhibited by cold target ([3]; T-cells induced against peptide 3496, with cold target): 10%; specific cytolysis of colon cancer cell line SW480 ([3]; T-cells induced against peptide 3496 in a renal cancer patient): 28%; induction of specific T-cells against the peptide [4]: able to induce specific T-cells
7 | T L T P S N T P L (TLTPSNTPL; listed as Homo sapiens) [Peptide 277-285] | no | no | no | no | no | no | no | no | no | no | no | no | no | no | no | no | no | yes | recognition by T-cells of patients in peptide pools [1]: recognized in both pools
